From US8735353B2, “Polypeptides and uses thereof” (priority 2009, dated 2014)

How the values were obtained:
[1] = test system: E. coli; assay: Radial diffusion assay (RDA); assay type: cell-based
Method: Essentially as described earlier, bacteria were grown to mid-logarithmic phase in […] of full-strength (3% w/v) trypticase soy broth (TSB) (Becton-Dickinson). The microorganisms were then washed once with 10 mM Tris, pH 7.4. Subsequently, 4×10^8 cfu were added to 15 ml of the underlay agarose gel, consisting of 0.03% (w/v) TSB, 1% (w/v) low electroendosmosis type (EEO) agarose (Sigma-Aldrich) and 0.02% (v/v) Tween 20 (Sigma-Aldrich). The underlay was poured into a Ø 144 mm petri dish. After agarose solidification, 4 mm-diameter wells were punched and 6 μl peptide solution of required concentration added to each well. Plates were incubated at 37° C. for 3 h to allow peptide diffusion. The underlay gel was then covered with 15 ml of molten overlay (6% TSB and 1% Low-EEO agarose in distilled H2O). Antimicrobial activity of a peptide was visualized as a zone of clearing around each well after 18-24 h of incubation at 37° C.
Essentially as described earlier bacteria were grown to mid-logarithmic phase in 10 ml of full-strength (3% w/v) trypticase soy broth (TSB) (Becton-Dickinson, Cockeysville, Md.). The microorganisms were then washed once with 10 mM Tris, pH 7.4. […]

[2] = test system: RAW 264.7 macrophages; assay: LPS effects on macrophages in vitro, NO production (Griess reaction); assay type: cell-based, mouse; settings: for effect on NO production of LPS-stimulated macrophages: RAW 264.7, LPS
Method: 3.5×10^5 cells were seeded in 96-well tissue culture plates (Nunc, 167008) in phenol red-free DMEM (Gibco) supplemented with 10% FBS and antibiotics. Following 6 hours of incubation to permit adherence, cells were stimulated with 100 or 10 ng/mL E. coli (0111:B4) or P. aeruginosa LPS (Sigma), with and without peptide of various doses. The levels of NO in culture supernatants were determined after 24 hours from stimulation using the Griess reaction [38]. Briefly, nitrite, a stable product of NO degradation, was measured by mixing 50 μl of culture supernatants with the same volume of Griess reagent (Sigma, G4410) and reading absorbance at 550 nm after 15 min. Phenol-red free DMEM with FBS and antibiotics were used as a blank. A standard curve was prepared using 0-80 μM sodium nitrite solutions in ddH2O.
3.5×10^5 RAW 264.7 cells were seeded in 96-well tissue culture plates (Nunc no. 167008) in phenol red-free DMEM (Gibco) supplemented with 10% FBS containing 1% Anti-Anti (Invitrogen). […] The level of NO in culture supernatants was determined after a period of 20 hours using the Griess reaction (27)ref. Briefly, Nitrite, a stable product of NO degradation, was measured by mixing 50 μl of culture supernatants with the same volume of Griess reagent (Sigma, G4410), and reading absorbance at 550 nm after 15 min. Phenol-red free DMEM with FBS and antibiotics were used as a blank. A standard curve was prepared using sodium nitrite at 0-80 μM in ddH2O.
3.5×10^5 cells were seeded in 96-well tissue culture plates (Nunc, 167008) in phenol red-free DMEM (Gibco) supplemented with 10% FBS and antibiotics. […] The levels of NO in culture supernatants were determined after 24 hours from stimulation using the Griess reaction [25]. Briefly, nitrite, a stable product of NO degradation, was measured by mixing 50 μl of culture supernatants with the same volume of Griess reagent (Sigma, G4410) and reading absorbance at 550 nm after 15 min. […]

[3] = test system: LPS-induced shock; assay: LPS model in vivo, E. coli LPS (Example B); design: species or system C57BL/6 mice
Method: Male C57BL/6 mice (8 weeks, 21+/−5 g), were injected intraperitoneally with 18 mg E. coli 0111:B4 LPS or 36 mg P. aeruginosa LPS (Sigma) per kg of body weight. […] Survival and status was followed during seven days. For SEM and histochemistry, mice were sacrificed 20 h after LPS challenge, and lungs, liver, kidney, and spleen were removed and fixed. For determination of cytokine levels in mouse plasma, animals were sacrificed 8 h and 20 h after LPS injection. The blood was collected immediately by cardiac puncture. These experiments were approved by the Laboratory Animal Ethics Committee of Malmö/Lund.
Mouse blood (anti-coagulated with EDTA) was taken by cardiac puncture and analysed with the VetScan HM5 System (TRIOLAB). The number of white blood cells, percentages of lymphocytes, neutrophils, monocytes and platelets were determined.
(§1) The cytokines IL-6, IL-10, MCP-1, INF-γ, and TNF-α were measured in cell culture supernatants from RAW264.7 cells and plasma from mice injected with LPS or P. aeruginosa (with or without peptide treatment) using the Cytometric bead array; Mouse Inflammation Kit (Becton Dickinson AB) according to the manufacturer's instructions. All plasma samples were stored at −20° C. before the analysis.
For scanning electron microscopy lungs were taken 20 h after LPS injection. […] Specimens were washed with cacodylate buffer, and dehydrated with an ascending ethanol series from 50% (vv) to absolute ethanol. The specimens were then subjected to critical-point drying in carbon dioxide, with absolute ethanol as intermediate solvent, mounted, on aluminium holders, sputtered with 30 nm palladium/gold and examined in a JEOL JSM-350 scanning electron microscope

[4] = test system: E. coli ATCC 25922; assay: Viable count assay; assay type: cell-based; settings: E. coli ATCC 25922, proteins and peptides at 3 and 6 μM
Method: E. coli bacteria were grown to mid-logarithmic phase in Todd-Hewitt (TH) medium. They were then washed and diluted in 10 mM Tris, pH 7.4 containing 5 mM glucose. […] To quantify the bactericidal activity, serial dilutions of the incubation mixtures were plated on TH agar, followed by incubation at 37° C. overnight and the number of colony-forming units was determined. 100% survival was defined as total survival of bacteria in the same buffer and under the same condition in the absence of peptide.
E. coli ATCC 25922 bacteria were grown to mid-logarithmic phase in Todd-Hewitt (TH) medium. Bacteria were washed and re-suspended in 10 mM Tris, pH 7.4 containing 5 mM glucose. […] Serial dilutions of the incubation mixtures were plated on TH agar, followed by incubation at 37° C. overnight and cfu determination.
E. coli ATCC 25922 bacteria were grown to mid-logarithmic phase in Todd-Hewitt (TH) medium (Becton and Dickinson, Maryland, USA). The microorganisms were then washed and diluted in 10 mM Tris, pH 7.4 containing 5 mM glucose. […] To quantify the bactericidal activity, serial dilutions of the incubation mixtures were plated on TH agar, followed by incubation at 37° C. overnight and the number of colony-forming units was determined. […] Significance was determined using the statistical software SigmaStat (SPSS Inc., Chicago, Ill., USA).

[5] = test system: human peripheral blood monocytes; assay: TNF-α assay in human peripheral blood monocytes; assay type: cell-based; settings: 10 ng/ml E. coli LPS
Method: Cell supernatants were collected and stored at −20° C. […] Plasma was obtained by centrifuging at 400 g, 10 min and stored at −20° C. The TNF-α level was measured using a human TNF-Elisa Kit (Invitrogen).

[6] = test system: human monocytes; assay: Clotting time, LPS-stimulated human monocytes added to citrate plasma; assay type: cell-based; settings: concentrations similar to physiological thrombin (1.5 μM)
Method: Whole blood was incubated with 10 ng/ml E. coli LPS+/−the indicated concentrations of peptide. The clotting reaction in human citrated plasma was initiated by adding the blood cells. […] Human monocytes were stimulated with LPS and/or peptides, and the clotting times were determined by adding the treated cells to human citrate plasma supplemented with CaCl2
(§2) All clotting times were analyzed using a coagulometer (Amelung, Lemgo, Germany). […] (PT-thromboplastin reagent (Trinity Biotech), TCT: Thrombin reagent (Technoclone)). To record the activated partial thromboplastin time (aPTT), 100 μl of a kaolin-containing solution (Technoclone) was add to the plasma-peptide mix and incubated for 200 sec before clot formation was initiated by adding 100 μl of 30 mM fresh CaCl2 solution. […] Cells were washed and resuspended in 100 μl PBS. Hundred microliter of fresh human citrate plasma were reconstituted with 100 μl of fresh 30 mM CaCl2 solution and pre-warmed for 60 sec. The clot formation was started by adding the hPBMNC. The same procedure was used to determine clotting times for whole blood.

[7] = test system: human citrate plasma; assay: Clotting assays in plasma (aPTT, PT, TCT); assay type: biochemical; settings: 20 μM peptide
Method: as §2

[8] = test system: RAW 264.7 cells; assay: Cytokine release from LPS-stimulated RAW 264.7 cells; assay type: cell-based, mouse; settings: 10 ng/ml E. coli LPS
Method: RAW 264.7 cells were stimulated with 10 ng/ml E. coli LPS and cytokines were analysed in the cell supernatants.
as §1

## thrombin
[1]; E. coli, low-salt conditions, not digested with neutrophil elastase
  antimicrobial activity of intact protein in RDA: inactive

## VFRLKKWIQKVI (12-mer thrombin-derived peptide) [VFR12]
[2]
  effect on NO production of LPS-stimulated macrophages: not able to block LPS effects
[1]; E. coli ATCC 25922, 0.15M NaCl, peptide at 100 μM
  bactericidal potency in RDA at high salt: retained good bactericidal potency

## WFFFYYLIIGGGVVTHQQRKKKKDE (WFF25 peptide) [control peptide, same composition as GKY25, amino acids sorted after hydrophobicity, reference compound]
[2]
  effect on NO production of LPS-stimulated macrophages: did not show anti-inflammatory effects
[3]; 500 μg i.p., followed 7 days
  survival in LPS-induced shock: does not increase survival

## VFRLKKWIQKVIDQFGE (VFR17)
[4]
  antibacterial activity in viable count assay: significant antibacterial activities

## HVFRLKKWIQKVIDQFGE (HVF18) [endogenously produced C-terminal thrombin peptide]
[5]
  TNF-α production: damped TNF-α production
[2]; RAW 264.7, 10 ng/ml LPS
  concentration completely eliminating LPS-induced NO-responses: much higher doses
[6]
  clotting time with LPS-stimulated monocytes (TF-mediated coagulation): less potent
[7]
  activated partial thromboplastin time (aPTT): significantly prolong
  prothrombin time (PT): not significantly affected
  thrombin clotting time (TCT): not significantly affected
[3]; 0.5 mg peptide, followed 7 days
  weight: full recovery of weight
[3]; 18 mg/kg E. coli LPS i.p., 0.5 mg peptide 30 minutes later
  survival in LPS-induced shock: 100%
[3]; 8 and 20 h after LPS injection, 0.5 mg peptide
  proinflammatory IL-6, IFN-γ, TNF-α, MCP-1 in blood: significant reductions
[3]; 8 and 20 h after LPS, 0.5 mg peptide
  platelet counts: significantly increased platelets
[3]; 8 h after LPS injection
  IL-10 in blood: increase in IL-10
[8]
  effect on IL-10: significant up-regulation of IL-10
[8]; peptide 10 μM
  effect on cytokines at 10 μM: not
